Marks after values point to notes of the source that are not given here.
Assays:
[1] = system: syntaptosomal membranes; details: cited from earlier work
[2] = system: SOD1G93A mutant mice; test: Onset of paralysis and survival in SOD1G93A mouse model of familial ALS; type: in vivo; details: for age at death (d) mean / onset of paralysis (d) mean: 5 days/week from 90d
Protocol: Additional studies to explore effects of LKE in vivo, as a pharmacological candidate were conducted in a murine model for the motoneuron disease amyotrophic lateral sclerosis (ALS). In a first effort to assess LKE effects against a model of spontaneous neurodegeneration, SOD1G93A mutant mice modeling familial ALS [27-28] were treated with intraperitoneal (i.p.) injections of 100 mg/kg/d LKE in saline vehicle, from 90d throughout the remaining mouse lifespan. LKE is relevant to test in this mouse because the SOD1G93A mouse experiences robust neuroinflammation concomitant with TNFα-driven microglial activation, oxidative stress, and significant progressive distal axonopathy, all of which might be expected to be mitigated by LKE based on the ester's observed effects in cell culture. Mouse motor function was assessed as previously described using a standard rotarod test, at sequential 10d intervals (FIG. 6). Specific groups of mice were treated with LKE in saline or saline vehicle only. […] Overall survival was increased by LKE based on logrank analysis (Table I).
(§1) Mice were injected with synthetic gLan in saline at 50-200 mg/kg/d, five days per week (Monday-Friday) beginning at 90d of age. Mice were assessed at baseline and every 10d for motor functional ability using the rotarod task as described previously.
Motor function dropped off rapidly amongst all groups at ages >110 d (FIG. 8). As in the case of LKE treatment, chronic intraperitoneal gLan at 100-200 mg/kg/dose tended to increase the age at which onset-of-paralysis was observed (based on a leg-clinch test) and the mean age of death of the SOD1G93A mice (Table II). When motor performance curves were interpolated to estimate the age at which mice lost an average 50% of baseline motor function, the 100 mg/kg/dose gLan treatment group reached this clinical endpoint approximately 18d later than the vehicle-treated group (FIG. 8).

[3] = system: HT-4 neurons; details: cited from earlier work
[4] = system: TNFα or LPS-treated microglia and macrophages; details: cited from earlier work
[5] = system: SOD1G93A mice; test: Rotarod motor function in SOD1G93A mice; type: in vivo, mouse
Protocol: FIG. 8. […] Mice were treated with daily intraperitoneal injections of gLan, at the indicated dose, 5 days/week beginning at 90 d, and motor performance was evaluated by rotarod task as described in the examples.
Additional studies to explore effects of LKE in vivo, as a pharmacological candidate were conducted in a murine model for the motoneuron disease amyotrophic lateral sclerosis (ALS). In a first effort to assess LKE effects against a model of spontaneous neurodegeneration, SOD1G93A mutant mice modeling familial ALS [27-28] were treated with intraperitoneal (i.p.) injections of 100 mg/kg/d LKE in saline vehicle, from 90d throughout the remaining mouse lifespan. LKE is relevant to test in this mouse because the SOD1G93A mouse experiences robust neuroinflammation concomitant with TNFα-driven microglial activation, oxidative stress, and significant progressive distal axonopathy, all of which might be expected to be mitigated by LKE based on the ester's observed effects in cell culture. Mouse motor function was assessed as previously described using a standard rotarod test, at sequential 10d intervals (FIG. 6). Specific groups of mice were treated with LKE in saline or saline vehicle only.
as §1

[6] = system: NSC-34 motor neuron-like cells; details: NSC-34 cells; cited from earlier work
[7] = system: NSC-34 cells; details: cited from earlier work
[8] = system: primary dissociated chick dorsal root ganglia (DRG) cultures; test: Neurite length in primary dissociated chick dorsal root ganglia cultures; type: cell-based; details: 100 μM, treated at 2-3 DIV, 24 h
Protocol: FIG. 5. LK-5-ethyl ester (LKE) promotes neurite extension in primary, dissociated chick dorsal root ganglia cell cultures. Neurons were treated with LKE or saline vehicle for 24 h from DIV2-3 and quantitatively assessed for neurite morphometry as described in the text.
Cell culture studies were performed to assess LKE effects on neuritigenesis in primary dissociated chick dorsal root ganglia (DRG) cultures prepared essentially as described by Margiotta and Howard. Cultures were treated with LKE at 2-3 days in vitro (DIV), and neuron morphometry was quantified from bright field micrographs by a blinded observer using Metamorph® software (Molecular Devices, Sunnyvale Calif. USA).

[9] = 100 mg/kg/d i.p. in saline from 90d, N = 15

## O=C(O)C1CSCC(C(=O)O)N1 (centres unmarked) [reduced LK, thiomorpholine dicarboxylic acid]
[1]
  displacement of [35S]LK: could not displace

## CCOC(=O)C1CSCC(C(=O)O)=N1 (centres unmarked) [LKE, LK-5-ethyl ester]
[2]; 100 mg/kg/d i.p. from 90d, logrank analysis
  overall survival: increased
[2]; [9]
  maximum age at death: 152 days
  median age at death (d): 139† d
  minimum age at death: 124 days
[2]; 100 mg/kg/d i.p. in saline from 90d, mean ± SEM, N = 15
  age of frank paralysis: 121.6 ± 2.5 days
[3]
  protection against toxicity of high-dose glutamate: protected
[4]
  nitric oxide synthesis: suppressed
[5]; 100 mg/kg/d i.p. from 90d, rotarod and leg-splay test
  progression of clinical motoneuron disease: significantly slowed
[6]
  protection from toxicity of hydrogen peroxide (H2O2): protected
  protection from toxicity of microglia-conditioned medium: protected
[7]
  growth factor-stimulated outgrowth of neurites: promoted
[8]
  mean neurite length of dissociated DRG neurons: significantly increased

## NC(CSC[C@H](NC(=O)CC[C@H](N)C(=O)O)C(=O)NCC(=O)O)C(=O)O (some centres unmarked) [gLan, γGlu-Cys(S-Ala)-Gly]
[2]; gLan 50 mg/kg daily i.p.
  age at death (d) mean: 126.7 days
  onset of paralysis (d) mean: 111.6 days
[2]; gLan 100 mg/kg daily i.p.
  age at death (d) mean: 138.3 days
  onset of paralysis (d) mean: 123.8 days
[2]; gLan 200 mg/kg daily i.p.
  age at death (d) mean: 133.1 days
  onset of paralysis (d) mean: 116.7 days
[5]; 100 mg/kg/dose, interpolated from motor performance curves
  delay versus vehicle of the age at which mice lost an average 50% of baseline motor function: approximately 18 d
[5]; 50-200 mg/kg/d, up to 110d or 120d, 100 mg/kg optimum, p<0.01 repeated measures ANOVA
  motor function (rotarod): dose-dependently improved
[5]; 100-200 mg/kg/d
  average rotarod performance at 100d and 110d versus 90d baseline: improved above the 90d baseline value
[5]; 100-200 mg/kg/d, ages <120d
  motor function relative to saline treated control animals: twice

## O=C(O)C1=NC(C(=O)O)CSC1 (centres unmarked) [LK, 2H-1,4-thiazine-5,6-dihydro-3,5-dicarboxylic acid]
[3]
  protection against toxicity of high-dose glutamate: protected
[4]
  nitric oxide synthesis: suppressed
[1]; saturable, reversible with cold LK, read-out: Kd of [35S]LK binding to synaptosomal membranes
  Kd: 58 nM

Source: US20130209366A1, “Glutathione-Lanthionine Compounds and Methods Related Thereto” (OKLAHOMA MEDICAL RESEARCH FOUNDATION, priority 2010, published 2013)
